{
  "source": "ChEMBL document CHEMBL1201862",
  "about": "“PubChem BioAssay data set” (2004)",
  "key": {"[1]": {"biological_target": "T1, Probable nicotinate-nucleotide adenylyltransferase (Staphylococcus aureus (strain N315), UniProt P65502)", "T1 sequence (P65502 whole entry)": "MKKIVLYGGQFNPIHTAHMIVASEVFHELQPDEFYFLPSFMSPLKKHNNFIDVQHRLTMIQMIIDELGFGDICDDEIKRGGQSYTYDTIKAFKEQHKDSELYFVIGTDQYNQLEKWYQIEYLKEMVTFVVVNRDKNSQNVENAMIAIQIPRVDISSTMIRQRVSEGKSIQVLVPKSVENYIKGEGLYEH", "assay_type": "functional, Staphylococcus aureus subsp. aureus N315", "conditions": "read-out: IC50_Mean"}, "[2]": {"biological_target": "T1, Probable nicotinate-nucleotide adenylyltransferase", "assay_type": "functional, Staphylococcus aureus subsp. aureus N315"}, "[3]": {"biological_target": "ADP-ribosylation factor GTPase-activating protein 1 (Rattus norvegicus, UniProt Q62848)", "sequence (Q62848 whole entry)": "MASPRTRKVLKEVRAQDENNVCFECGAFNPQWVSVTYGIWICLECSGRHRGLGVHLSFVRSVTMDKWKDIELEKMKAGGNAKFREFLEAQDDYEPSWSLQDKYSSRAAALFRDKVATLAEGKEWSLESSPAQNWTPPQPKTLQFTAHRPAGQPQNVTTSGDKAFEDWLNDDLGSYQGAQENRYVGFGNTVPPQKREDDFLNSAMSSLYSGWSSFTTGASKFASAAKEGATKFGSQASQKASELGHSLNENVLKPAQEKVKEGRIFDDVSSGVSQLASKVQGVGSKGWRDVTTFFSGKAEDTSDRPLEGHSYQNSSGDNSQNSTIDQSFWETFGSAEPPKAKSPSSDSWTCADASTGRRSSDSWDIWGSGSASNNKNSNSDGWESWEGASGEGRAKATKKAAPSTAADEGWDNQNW", "assay": "Fluorescence polarization-based biochemical high throughput dose response screening assay to identify inhibitors of ADP-ribosylation factor GTPase activating protein 1 (ARFGAP1).", "assay_type": "functional"}, "[4]": {"assay": "mouse fibroblast viability loss – cell-based, cherry-pick samples, set 2, cytotoxicity control for T. cruzi growth inhibitor project, dose response (AID 651817)", "assay_type": "functional", "conditions": "NIH3T3"}, "[5]": {"biological_target": "T2, Small ubiquitin-related modifier 2 (Homo sapiens, UniProt P61956)", "T2 sequence (P61956 whole entry)": "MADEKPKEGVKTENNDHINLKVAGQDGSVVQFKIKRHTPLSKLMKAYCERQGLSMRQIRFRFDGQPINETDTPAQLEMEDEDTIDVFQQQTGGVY", "assay": "SUMO2 binding disruption by SUMO1 hits – biochemical, FRET, human SUMO2, uHTS hits, selectivity assay for SUMO1 interaction inhibitor project, dose response (AID 624384)", "assay_type": "functional", "conditions": "read-out: IC50_Mean"}, "[6]": {"biological_target": "T3, Small ubiquitin-related modifier 1 (Homo sapiens, UniProt P63165)", "T3 sequence (P63165 whole entry)": "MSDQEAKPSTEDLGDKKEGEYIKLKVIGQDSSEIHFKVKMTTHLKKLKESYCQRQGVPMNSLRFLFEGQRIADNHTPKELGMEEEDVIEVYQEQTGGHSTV", "assay": "SUMO1 protein interaction blockers, potency – biochemical, fluorescence polarization, uHTS hits, dose response (AID 624382)", "assay_type": "functional", "conditions": "read-out: IC50_Mean"}, "[7]": {"biological_target": "T3, Small ubiquitin-related modifier 1", "assay": "SUMO1 protein-protein binding blockers, potency – biochemical, FRET, dose response (AID 624383)", "assay_type": "functional", "conditions": "read-out: IC50_Mean"}, "[8]": {"biological_target": "T2, Small ubiquitin-related modifier 2", "assay": "disruption of SUMO2 interaction with SIM peptide – biochemical, fluorescence polarization, uHTS hits, selectivity assay for SUMO1 interaction inhibitor project, dose response (AID 624385)", "assay_type": "functional", "conditions": "read-out: IC50_Mean"}, "[9]": {"assay": "glucagon-like peptide-1 release potency in STC-1, concentration-response, half-maximal inhibitory concentration in the STC-1 line (AID 1117345)", "assay_type": "functional, cell-based"}, "[10]": {"assay": "Potency on glucagon-like peptide 1 release, dose-response in NCI-H716 cell line, half maximal inhibitory concentration (AID 1117344)", "assay_type": "functional, cell-based"}},
  "note": "Active and inactive are the calls of the source.",
  "data": [
    {"smiles": "N#Cc1c(SCc2c(Cl)cccc2Cl)nc(N)[nH]c1=S", "values": [
      {"measurement": "IC50", "setting": "[1]", "value": "32.9 µM (active)"},
      {"measurement": "IC50", "setting": "[2]", "value": "13 µM (active)"}
    ]},
    {"smiles": "CCC(=O)Nc1ccc(NC(=O)CSc2nnnn2-c2ccc3c(c2)OCCO3)cc1", "values": [
      {"measurement": "IC50", "setting": "[3]", "value": "40.7 µM (inactive)"}
    ]},
    {"smiles": "C[C@@H]1CN([C@H](C)CO)C(=O)c2cccc(NC(=O)c3ccncc3)c2O[C@H]1CN(C)Cc1ccc(-c2ccccc2)cc1", "values": [
      {"measurement": "AC50", "setting": "[4]", "value": "42 µM (inactive)"}
    ]},
    {"smiles": "[O-][S+](c1cc(Cl)cc(Cl)c1O)c1cc(Cl)cc(Cl)c1O", "note": "[BITHIONOLOXIDE]", "values": [
      {"measurement": "IC50", "setting": "[5]", "value": "43.3 µM (inactive)"},
      {"measurement": "IC50", "setting": "[6]", "value": "0.876 µM (active)"},
      {"measurement": "IC50", "setting": "[7]", "value": "9.66 µM (active)"},
      {"measurement": "IC50", "setting": "[8]", "value": "3.55 µM (active)"},
      {"measurement": "IC50", "setting": "[9]", "value": "> 40 µM (inactive)"},
      {"measurement": "IC50", "setting": "[10]", "value": "19.7 µM (inactive)"}
    ]}
  ]
}
